Target: M-phase inducer phosphatase 2 (Homo sapiens) (UniProt P30305)
Test: Cdc25B catalytic domain phosphatase inhibitors, dose response, biochemical, with glutathione, probe assessment (AID 671)
Conditions: recombinant Cdc25B catalytic domain, phosphatase activity; for inhibition: measured here: inhibition at top dose 50 uM, at 50 µM, stronger effect = higher value

M-phase inducer phosphatase 2 (Homo sapiens), sequence (P30305 whole entry, looked up, the tested form may be a part): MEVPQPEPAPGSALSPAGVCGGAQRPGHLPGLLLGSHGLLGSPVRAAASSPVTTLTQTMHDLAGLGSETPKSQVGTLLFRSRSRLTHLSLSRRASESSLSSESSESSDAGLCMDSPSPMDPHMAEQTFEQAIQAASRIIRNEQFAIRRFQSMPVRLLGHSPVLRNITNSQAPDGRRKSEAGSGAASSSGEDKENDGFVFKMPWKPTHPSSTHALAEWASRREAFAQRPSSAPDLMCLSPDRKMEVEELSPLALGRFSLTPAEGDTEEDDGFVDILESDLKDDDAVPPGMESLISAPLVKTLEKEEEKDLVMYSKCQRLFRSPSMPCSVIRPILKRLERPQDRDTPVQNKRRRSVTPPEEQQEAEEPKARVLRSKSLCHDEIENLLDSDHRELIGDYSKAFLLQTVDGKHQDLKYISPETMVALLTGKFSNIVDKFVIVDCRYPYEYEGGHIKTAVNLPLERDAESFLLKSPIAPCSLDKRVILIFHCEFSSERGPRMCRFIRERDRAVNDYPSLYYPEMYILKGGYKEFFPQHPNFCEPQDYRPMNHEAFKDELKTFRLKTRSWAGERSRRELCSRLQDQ

Cc1ccc2c(c1)C1C=CCC1C(C(=O)O)N2 (stereo not drawn)
IC50: 5.89 µM | inhibition: 88.9%

c1ccc(CSc2nnc(-c3ccco3)c(-c3ccco3)n2)cc1
inhibition: 84.7%

CC(=O)Nc1cc(OC(C)=O)c2nonc2c1OC(C)=O
inhibition: 28.7%

CCn1nc(-c2cccs2)nc2c(=O)n(C)c(=O)nc1-2
inhibition: 41.5%

COc1ccc(Br)cc1/C=c1\sc2nc(-c3ccco3)nn2c1=O
inhibition: 91.7%

O=C(O)C1Nc2c(O)cccc2C2C=CCC12 (stereo not drawn)
inhibition: 94.8%

Cn1ncnc2c(=O)n(C)c(=O)nc1-2
inhibition: 63%

CCOc1ccc2noc3c2c1C(=O)c1ccccc1-3
inhibition: 30.7%

Cc1ccc2c(c1C)NC(C(=O)O)C1CC=CC21 (stereo not drawn)
inhibition: 89.9%

O=c1[nH]c(Nc2ccccc2)cc2ccccc12
inhibition: 48.6%

N#Cc1c(N2CCCC2)nc(N)c2c(N)nc(N3CCCC3)cc12
inhibition: -13.3%

COc1cccc2c1NC(C(=O)O)C1CC=CC21 (stereo not drawn)
inhibition: 85%

[O-]/[N+](=C\c1ccc(OC(F)F)cc1)c1ccccc1
inhibition: 8.3%

CCn1nc(-c2ccccc2)nc2c(=O)n(C)c(=O)nc1-2
inhibition: 34.5%

CCOC(=O)C(C(=O)OCC)c1cc(Br)c2noc3c2c1C(=O)c1ccccc1-3
inhibition: 36.5%

Cc1ccccc1Nc1cc2ccccc2c(=O)[nH]1
inhibition: 40.3%

COc1cccc2c(C)c(C(=O)O)[nH]c12
inhibition: 85.7%

O=C(Nc1ccc2nc(-c3ccco3)c(-c3ccco3)nc2c1)N1CCCCCC1
inhibition: 85.5%

N#Cc1c(N)sc(=S)c2c1CCN(Cc1ccccc1)C2
inhibition: 51%

O=C1Cc2ccccc2C(=O)N1CCc1ccccc1
inhibition: 7.6%

COc1ccc2noc3c2c1C(=O)c1ccccc1-3
inhibition: 16.7%

[O-]/[N+](=C\c1ccncc1)c1ccccc1
inhibition: 4.4%

O=C1C=Cc2ccccc2C1=O
inhibition: 78.6%

O=C(OC1CCCCC1)c1ccc2c(c1)C1C=CCC1C(C(=O)O)N2 (stereo not drawn)
inhibition: 90.2%

Cc1c(N=c2c(=O)c3ccccc3c2=O)c(=O)n(-c2ccccc2)n1C
inhibition: 30.4%

O=C(NC1(O)C(=O)c2ccccc2C1=O)c1ccccc1
inhibition: 36%

Nc1cccc2cnccc12
inhibition: -3.3%

From PubChem BioAssay AID671 (University of Pittsburgh Molecular Library Screening Center, 2007)
